Assay results reported in article PMC8953583, “The Longitudinal Dividing Bacterium Candidatus Thiosymbion Oneisti Has a Natural Temperature-Sensitive FtsZ Protein with Low GTPase Activity” (International Journal of Molecular Sciences, 2022).
Substitutions are numbered along the chain they refer to.

T1: FtsZ^EC (Escherichia coli, UniProt P0A9A6)
T1 construct: purified FtsZ; purification not described in main text
T1 sequence (P0A9A6 1-383): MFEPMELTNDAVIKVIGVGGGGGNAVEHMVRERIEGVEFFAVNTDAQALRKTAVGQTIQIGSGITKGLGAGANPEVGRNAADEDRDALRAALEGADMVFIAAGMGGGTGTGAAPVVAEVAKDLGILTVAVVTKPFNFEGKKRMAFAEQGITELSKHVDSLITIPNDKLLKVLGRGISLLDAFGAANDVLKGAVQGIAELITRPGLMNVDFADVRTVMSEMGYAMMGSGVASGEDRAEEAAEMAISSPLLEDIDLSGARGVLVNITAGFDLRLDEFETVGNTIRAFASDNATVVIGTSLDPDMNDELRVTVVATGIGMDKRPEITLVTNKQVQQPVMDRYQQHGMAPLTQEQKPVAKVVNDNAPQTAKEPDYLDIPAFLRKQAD

T2: FtsZ^TO (Candidatus Thiosymbion oneisti, UniProt I3VI34, I207M)
T2 construct: untagged, expressed from pJW17 (pET11b) in E. coli BL21(DE3) pLysS; anion-exchange purified
T2 sequence (I3VI34 1-397 I207M): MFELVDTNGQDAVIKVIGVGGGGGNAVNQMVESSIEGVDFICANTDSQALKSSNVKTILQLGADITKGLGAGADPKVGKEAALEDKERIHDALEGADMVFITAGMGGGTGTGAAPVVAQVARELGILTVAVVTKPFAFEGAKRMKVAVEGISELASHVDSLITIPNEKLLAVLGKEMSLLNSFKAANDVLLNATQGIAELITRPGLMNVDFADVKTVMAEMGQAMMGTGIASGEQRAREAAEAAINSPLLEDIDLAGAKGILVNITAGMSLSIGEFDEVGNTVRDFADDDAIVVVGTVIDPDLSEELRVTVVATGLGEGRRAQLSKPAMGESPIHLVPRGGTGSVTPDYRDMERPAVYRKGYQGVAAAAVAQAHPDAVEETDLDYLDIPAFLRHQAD

B1: FtsZ^TO (Candidatus Thiosymbion oneisti) (protein)
chain: T2 sequence (I3VI34 1-397 I207M) with M207I
notes: untagged, expressed from pJW17 (pET11b) in E. coli BL21(DE3) pLysS; anion-exchange purified

What was measured:
FtsZ^EC = molecular target: T1, FtsZ^EC; test: GTPase assay (phosphate release); assay type: biochemical; details: comparison with FtsZ^TO; conditions in supplement
FtsZ^TO = molecular target: T2, FtsZ^TO; test: Malachite green phosphate release GTPase assay; assay type: biochemical; details: 1 mM GTP, HEPES buffer pH 7.5 or MES buffer pH 6.5, 50 mM KCl, 5 mM MgCl2, 28 °C; T7 loop mutant
[1] = substrate: Nc1nc2c(ncn2[C@@H]2O[C@H](COP(=O)(O)OP(=O)(O)OP(=O)(O)O)[C@@H](O)[C@H]2O)c(=O)[nH]1; test: Malachite green phosphate release GTPase assay, Michaelis-Menten fit; assay type: biochemical, Candidatus Thiosymbion oneisti; details: MES buffer pH 6.5, 50 mM KCl, 5 mM MgCl2, 28 °C, 5 μM FtsZ
Description: Malachite green phosphate release GTPase assay, Michaelis-Menten fit on FtsZ^TO

| Molecule | GTPase assay (phosphate release) (FtsZ^EC) | Malachite green phosphate release GTPase assay (FtsZ^TO) | Km [1] | kcat [1] |
| --- | --- | --- | --- | --- |
| Nc1nc2c(ncn2[C@@H]2O[C@H](COP(=O)(O)OP(=O)(O)OP(=O)(O)O)[C@@H](O)[C@H]2O)c(=O)[nH]1 [GTP] | FtsZ^TO showed a low GTPase activity compared to FtsZ^EC (Figure S4a) | Mutations I207M of the T7 loop and I273E of the H10 helix mutations reduced the GTPase | – | – |
| B1 | – | – | 550 ± 110 µM | 0.00817 ± 0.000833 s⁻¹ |
